Reference: PubChem BioAssay (NCI)
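Test compounds were applied to cells in 96-well plates for 48 hours at 5 doses. GI50 = concentration required for 50% inhibition of growth. TGI denotes the concentration required for complete inhibition of growth.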 Where a SMILES comes first, the peptide text is derived from it. The star is where a group is joined. Trt = c1ccc(C(c2ccccc2)(c2ccccc2)*)cc1; Cbz = O=C(OCc1ccccc1)*

Columns and labels:
Test in all cases: NCI tumour cell line growth inhibition, 48 h
[1] = tested on: SF-539 CNS
[2] = tested on: EKVX NSCLC
[3] = tested on: SF-268 CNS
[4] = tested on: 786-0 renal
[5] = tested on: IGROV1 ovarian
[6] = tested on: NCI-H460 lung
[7] = tested on: OVCAR-5 ovarian
[8] = tested on: NCI-H522 lung
[9] = tested on: SNB-75 CNS
[10] = tested on: MOLT-4 leukemia

COC(=O)C(CSC(c1ccccc1)(c1ccccc1)c1ccccc1)NC(=O)C(CC(N)=O)NC(=O)OCc1ccccc1 (stereo not drawn) (Cbz-Asn-Cys(Trt)-OMe; configuration not given here)
GI50 [1]: 1.68 µM
TGI [1]: 5.49 µM
GI50 [2]: 4.15 µM
TGI [2]: 25.5 µM
GI50 [3]: 3.08 µM
TGI [3]: 13.2 µM
GI50 [4]: 3.44 µM
TGI [4]: 12.6 µM
GI50 [5]: 6.1 µM
TGI [5]: 25.7 µM
GI50 [6]: 4.5 µM
TGI [6]: 15.8 µM
GI50 [7]: 7.23 µM
TGI [7]: 20.2 µM
GI50 [8]: 3.91 µM
TGI [8]: 18.7 µM
GI50 [9]: 5.43 µM
TGI [9]: 24.6 µM
GI50 [10]: 2.1 µM
TGI [10]: 5.2 µM

COC(=O)C(C(=O)C(N)=O)c1csc(-n2nc(-c3ccccc3)cc2-c2ccccc2)n1 (stereo not given)
TGI [1]: > 31.6 µM
TGI [2]: > 31.6 µM
TGI [3]: > 31.6 µM
TGI [4]: > 31.6 µM
TGI [5]: > 31.6 µM
TGI [6]: > 31.6 µM
TGI [7]: > 100 µM
TGI [8]: > 31.6 µM
TGI [9]: > 31.6 µM
TGI [10]: > 31.6 µM

C/C(=N/O)c1ccc(Nc2cc(-n3ccnc3)c3ccccc3n2)cc1
GI50 [1]: 11.5 µM
TGI [1]: > 100 µM
GI50 [2]: 22 µM
TGI [2]: > 100 µM
GI50 [3]: > 100 µM
TGI [3]: > 100 µM
GI50 [4]: 4.83 µM
TGI [4]: > 100 µM
GI50 [5]: 15.1 µM
TGI [5]: 52.8 µM
GI50 [6]: 21.5 µM
TGI [6]: > 100 µM
GI50 [7]: 86.6 µM
TGI [7]: > 100 µM
GI50 [8]: 35.8 µM
TGI [8]: > 100 µM
GI50 [9]: 7.04 µM
TGI [9]: 73.5 µM
GI50 [10]: 2.95 µM
TGI [10]: 18.5 µM

COc1ccc2c(c1)c1c3n2CCNN=C3CCC1
TGI [1]: > 100 µM
TGI [2]: > 100 µM
TGI [3]: > 100 µM
TGI [4]: > 100 µM
TGI [5]: > 100 µM
TGI [6]: > 100 µM
TGI [7]: > 100 µM
TGI [8]: > 100 µM
TGI [9]: > 100 µM
TGI [10]: > 100 µM

O=C(/C=C/C1C(=O)NC(=O)NC1=O)CC(=O)C(=O)Nc1cc(Cl)c(Cl)cc1Cl
TGI [1]: > 100 µM
TGI [2]: > 100 µM
TGI [3]: > 100 µM
TGI [4]: > 100 µM
TGI [5]: > 100 µM
TGI [6]: > 100 µM
TGI [7]: > 100 µM
TGI [8]: > 100 µM
TGI [9]: > 100 µM
TGI [10]: > 100 µM

O=C(C=C=Nc1ccccc1)C(=O)N=C=Cc1ccccc1
GI50 [1]: 9.39 µM
TGI [1]: 23 µM
GI50 [2]: 6.81 µM
TGI [2]: 22.8 µM
GI50 [3]: 3.43 µM
TGI [3]: 12.1 µM
GI50 [4]: 1.75 µM
TGI [4]: 3.9 µM
GI50 [5]: 2.96 µM
TGI [5]: 12.3 µM
GI50 [6]: 14.1 µM
TGI [6]: 44.1 µM
GI50 [7]: 2.88 µM
TGI [7]: 11.8 µM
GI50 [8]: 1.81 µM
TGI [8]: 4.97 µM
GI50 [9]: 3.54 µM
TGI [9]: 18.5 µM
GI50 [10]: 1.14 µM
TGI [10]: 5.8 µM

O=c1[nH]cc(C(F)(C(F)(F)F)C(F)(F)F)c(=O)[nH]1
TGI [1]: > 100 µM
TGI [2]: > 100 µM
TGI [3]: > 100 µM
TGI [4]: > 100 µM
TGI [5]: > 100 µM
TGI [6]: > 100 µM
TGI [7]: > 100 µM
TGI [8]: > 100 µM
TGI [9]: > 100 µM
TGI [10]: > 100 µM

CN(C(=O)CNC(=O)/C=C/c1cccc(Cl)c1)C1CCS(=O)(=O)CC1
GI50 [1]: 7.28 µM
TGI [1]: > 100 µM
GI50 [2]: 34.3 µM
TGI [2]: > 100 µM
GI50 [3]: 65.1 µM
TGI [3]: > 100 µM
GI50 [4]: 4.57 µM
TGI [4]: > 100 µM
GI50 [5]: 3.05 µM
TGI [5]: > 100 µM
GI50 [6]: 13.9 µM
TGI [6]: > 100 µM
GI50 [7]: 8.5 µM
TGI [7]: > 100 µM
GI50 [8]: 1.17 µM
TGI [8]: > 100 µM
GI50 [9]: 3.02 µM
TGI [9]: > 100 µM
GI50 [10]: 2.12 µM
TGI [10]: > 100 µM

COc1cc(Cn2c(-c3ccccc3)cc3c2-c2oncc2CC3)cc(OC)c1
GI50 [1]: 0.297 µM
TGI [1]: > 49 µM
GI50 [2]: 0.449 µM
TGI [2]: > 100 µM
GI50 [3]: 0.876 µM
TGI [3]: > 100 µM
GI50 [4]: 0.601 µM
TGI [4]: > 100 µM
GI50 [5]: 0.399 µM
TGI [5]: > 100 µM
GI50 [6]: 0.333 µM
TGI [6]: 5.32 µM
GI50 [7]: 0.551 µM
TGI [7]: > 100 µM
GI50 [8]: 0.0891 µM
TGI [8]: 1.98 µM
GI50 [9]: 0.201 µM
TGI [9]: 20.1 µM
GI50 [10]: 0.427 µM
TGI [10]: > 100 µM

CC(C)[Si](OCC1CC(C#N)OC(C)(C)O1)(C(C)C)C(C)C (stereo not given)
TGI [1]: 79 µM
TGI [2]: 66 µM
TGI [3]: 82.7 µM
TGI [4]: 35.2 µM
TGI [5]: > 100 µM
TGI [6]: 30.8 µM
TGI [7]: > 100 µM
TGI [8]: 43.5 µM
TGI [9]: > 100 µM
TGI [10]: 41.1 µM

CC(=O)Nc1ccc(-c2nnc(SCC(=O)Nc3ccc(Cl)cc3)o2)cc1
TGI [1]: 30.2 µM
TGI [2]: 38.4 µM
TGI [3]: 20.1 µM
TGI [4]: 19.6 µM
TGI [5]: 29.3 µM
TGI [6]: 36.8 µM
TGI [7]: 31.6 µM
TGI [8]: 5.98 µM
TGI [9]: 39.7 µM
TGI [10]: 32.8 µM

COc1ccc2c(c1)/C(=N/OC(C)=O)c1c-2cnc2ccccc12
GI50 [1]: 41.9 µM
TGI [1]: > 100 µM
GI50 [2]: 23.1 µM
TGI [2]: > 100 µM
GI50 [3]: 24 µM
TGI [3]: 68.7 µM
GI50 [4]: 17.8 µM
TGI [4]: 33.2 µM
GI50 [5]: 25.3 µM
TGI [5]: 52 µM
GI50 [6]: 30.3 µM
TGI [6]: > 100 µM
GI50 [7]: 21.9 µM
TGI [7]: 55.6 µM
GI50 [8]: 22.3 µM
TGI [8]: 65.5 µM
GI50 [9]: 37.4 µM
TGI [9]: > 100 µM
GI50 [10]: 20 µM
TGI [10]: 92.2 µM

CSCCCNC(=O)[C@H](CSC)NC(=O)c1csc(CCNC(=O)[C@@H](NSc2ccccc2[N+](=O)[O-])C(C)O)n1 (stereo not given in full)
TGI [1]: > 100 µM
TGI [2]: > 100 µM
TGI [3]: > 100 µM
TGI [4]: > 100 µM
TGI [5]: > 100 µM
TGI [6]: > 100 µM
TGI [7]: > 100 µM
TGI [8]: > 100 µM
TGI [9]: > 100 µM
TGI [10]: > 100 µM

CC1=C(N2CC2)C(=O)c2ccccc2C1=O
TGI [1]: 5.91 µM
TGI [2]: 0.744 µM
TGI [3]: 5.14 µM
TGI [4]: 3.47 µM
TGI [5]: 8.58 µM
TGI [6]: 2.39 µM
TGI [7]: 1.69 µM
TGI [8]: 2.36 µM
TGI [9]: 2.32 µM
TGI [10]: 16.3 µM

CC1=CC(=O)NP(=O)(C23CC4CC(CC(C4)C2)C3)N1 (stereo not given)
TGI [1]: > 100 µM
TGI [2]: > 100 µM
TGI [3]: > 100 µM
TGI [4]: > 100 µM
TGI [5]: > 100 µM
TGI [6]: > 100 µM
TGI [7]: > 100 µM
TGI [8]: > 100 µM
TGI [9]: > 100 µM
TGI [10]: > 100 µM

Cc1c(Cl)c(C)c(Cc2c(C)c(Cl)c(C)c(Cl)c2O)c(O)c1Cl
GI50 [1]: 3.01 µM
TGI [1]: 11.4 µM
GI50 [2]: 2.64 µM
TGI [2]: 9.25 µM
GI50 [3]: 3.4 µM
TGI [3]: 15.8 µM
GI50 [4]: 2.98 µM
TGI [4]: 9.84 µM
GI50 [5]: 4.07 µM
TGI [5]: 19 µM
GI50 [6]: 2.43 µM
TGI [6]: 10.2 µM
GI50 [7]: 3.67 µM
TGI [7]: 14.4 µM
GI50 [8]: 1.84 µM
TGI [8]: 11.2 µM
GI50 [9]: 2.27 µM
TGI [9]: 7.93 µM
GI50 [10]: 3.24 µM
TGI [10]: 13.4 µM
